{"source": "patent US12062444B2", "about": "“Methods and compositions related to triple-negative breast cancer” (THE UNIVERSITY OF CHICAGO, priority 2017, dated 2024)", "key": {"tumor cell survival": {"system": "tumor cell survival", "settings": "in vitro and in vivo; cited from earlier work"}, "[1]": {"settings": "mifepristone 300 mg/day before weekly nab-paclitaxel, BC patients; cited from earlier work"}, "apoptotic cells": {"system": "apoptotic cells", "settings": "RU486 in conjunction with dexamethasone, compared to paclitaxel alone; cited from earlier work"}, "[2]": {"system": "GR chromatin association in MDA-MB-231 cells", "assay": "GR ChIP-sequencing and analysis", "assay_type": "cell-based, human", "settings": "co-treatment with Dex", "description": "MDA-MB-231 cells were grown to 80% confluence in 15-cm dishes in DMEM with 10% FBS, followed by 48h in DMEM supplemented with 2.5% charcoal-stripped FBS. […] Cells were cross-linked with 1% formaldehyde, quenched with glycine (final concentration of […]), and harvested. After cell lysis with ChIP lysis buffer (Magna ChIP A Chromatin Immunoprecipitation Kit, EMD Millipore), cells were sonicated to achieve the majority of DNA fragments between 200-400 bp. Input samples were preserved at -80° C. […] Following manufacturer's protocol, chromatin was eluted from GR ChIP and input samples. Library build and sequencing was performed at the University of Oregon Genomics Core facility using the NextSeq 500 sequencer. Quality control on sequences and adapter sequencing trimming was performed using Kapa Biosystems Illumina Library Quantification Kit. ChIP-seq analysis was carried out using the Galaxy platform (usegalaxy.org (111)). […] GR peaks for each treatment were normalized to its own input control sample. […] Selected GR peak locations in hg19 and GR peak maps were also individually analyzed using Integrative Genomics Viewer, IGV (Broad Institute (116))."}, "[3]": {"system": "GR-regulated gene expression in MDA-MB-231 cells", "assay": "Gene expression microarray and analysis", "assay_type": "cell-based, human", "description": "MDA-MB-231 cells were grown to 80% confluence in 15-cm dishes in DMEM with 10% FBS. […] Following compound exposure, cells were washed in PBS, and lysed in RNA lysis buffer (Qiagen) overnight at -80° C. RNA extraction, with accompanying DNase treatment, was performed using the RNeasy kit (Qiagen) following the manufacturer's protocol. […] The University of Chicago Genomics Core facility carried out the reverse transcription on the samples, followed by microarray using the Affymetrix Human U133 Plus 2.0 platform. […] A principal components analysis (PCA) was performed using the prcomp function in R (Q-mode PCA using singular value decomposition). […] Dex-regulated genes were overlapped with a list of n=5,170 differentially-expressed tumor-derived genes (in the same direction) from GR-high versus GR-low BCs (52). Ingenuity Pathway Analysis (Qiagen) of the n=462 patient-relevant and antagonist-inhibited genes was performed to obtain Activation Z-scores of the most significant Diseases and Biofunctions (cell functions)."}, "GR LBD": {"target": "T1, GR LBD (Homo sapiens, UniProt P04150)", "T1 construct": "The wild-type GR-LBD (amino acid residues 522-777) was cloned into a pFASTBAC plasmid; 6X-His (TEV-cleavable) (cleaved yes); made in house; host or cells: SF9 insect cells (baculovirus, pFASTBAC)", "T1 sequence (P04150 522-777)": "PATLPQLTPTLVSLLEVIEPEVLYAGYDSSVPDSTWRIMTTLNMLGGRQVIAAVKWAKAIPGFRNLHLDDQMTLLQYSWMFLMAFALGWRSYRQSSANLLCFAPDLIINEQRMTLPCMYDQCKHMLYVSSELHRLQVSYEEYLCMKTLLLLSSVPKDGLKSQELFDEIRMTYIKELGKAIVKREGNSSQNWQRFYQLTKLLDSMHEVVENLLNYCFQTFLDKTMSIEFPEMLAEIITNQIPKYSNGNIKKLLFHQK", "assay": "Ligand titration assay via fluorescence polarimetry (displacement of F-Dex)", "assay_type": "binding", "description": "SF9 insect cells were transfected with recombinant bacmid and virus (collected after 6 days) was amplified prior to protein expression. […] GR-LBD was purified first using Ni-affinity chromatography followed by overnight dialysis with TEV protease to remove the His tag. Extensive dialysis into 20 mM TRIS pH 8.0, 500 mM NaCl, 5% glycerol, 0.1% CHAPS, 0.25 mM TCEP was performed to obtain non-ligand-bound GR LBD. […] The purified proteins were concentrated to 5 mg/ml, flash frozen in 50 ul aliquots in N2(l), and stored at −80C.\nGR LBD was diluted in assay buffer (20 mM TRIS pH 7.5, 50 mM NaCl, 0.25 mM TCEP) to a concentration of 50 nM. […] Triplicate FP measurements were scaled to maximal FP and averaged for each ligand concentration."}}, "note": "Entries after “also recorded” stand apart in the source; their conditions may differ.", "data": [{"smiles": "CC#C[C@]1(O)CC[C@H]2[C@@H]3CCC4=CC(=O)CCC4=C3[C@@H](c3ccc(N(C)C)cc3)C[C@@]21C", "note": "[Mif, mifepristone]", "values": [{"measurement": "Paclitaxel cytotoxicity under GC activation", "setting": "tumor cell survival", "value": "increase paclitaxel cytotoxicity both in vitro and in vivo"}, {"measurement": "Safety and tolerability of the combination with nab-paclitaxel", "setting": "[1]", "value": "safe and tolerable; also recorded: potential for increased cytopenias"}, {"measurement": "Number of apoptotic cells induced by paclitaxel", "setting": "apoptotic cells", "value": "did not increase the number of apoptotic cells"}, {"measurement": "Relative GR promoter enrichment (+/−3kb)", "setting": "[2]", "value": "decrease in relative GR promoter enrichment"}, {"measurement": "Genes for which both GR modulators antagonized GR induction or repression by at least 25%", "setting": "[3]; 100 nM with 100 nM Dex", "value": "3,066"}, {"measurement": "Antagonized GR-regulated genes shared with the other antagonist", "setting": "[3]; C297 versus Mif, 100 nM", "value": 68, "unit": "%"}, {"measurement": "Pathway activation Z-score (Ingenuity Pathway Analysis) relative to Dex", "setting": "[3]; n=462 genes, cell survival, invasion, EMT pathways, FIG. 13", "value": "relative dampening of Z-score magnitude"}, {"measurement": "Displacement of fluorescently-labeled Dex (F-Dex) from the GR LBD", "setting": "GR LBD", "value": "low nM affinities"}, {"measurement": "Fit of FP dose response curve (half-maximal FP signal)", "setting": "GR LBD", "value": "able to fit data"}]}]}
